Assay results taken from patent US11566007B2, “Ras inhibitors” (Revolution Medicines, Inc., priority 2019, dated 2023).
pIC50: −log10 of the molar value.

Experiments:
NRAS WT = NRAS WT (Homo sapiens (Human), UniProt P01111+P62937); experiment: Ras-Raf (BRAF RBD) disruption / FRET / MOA assay, NRAS WT; type: biochemical; settings: read-out: IC50* NRAS WT FRET data
In short: (§1)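 Compounds were tested as a 10-point 3-fold dilution series from 30 μM final for their ability to drive ternary complex formation between nucleotide-loaded Ras and cyclophilin A, displacing the BRAF RBD. After 3 h at 25° C., anti-His Eu-W1024 (10 nM) and anti-GST allophycocyanin (50 nM) were added for 1.5 h. A TR-FRET ratio decrease versus DMSO gave IC50.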

NRAS Q61K = NRAS Q61K (Homo sapiens (Human), UniProt P01111+P62937, Q61K); experiment: Ras-Raf (BRAF RBD) disruption / FRET / MOA assay, NRAS Q61K; type: biochemical; settings: NRAS Q61K; Ras-Raf disruption/FRET/MOA assay; read-out: IC50* NRAS Q61K FRET data
In short: as §1

KRAS Q61H = KRAS Q61H (Homo sapiens (Human), UniProt P01116+P62937, Q61H); experiment: Ras-Raf (BRAF RBD) disruption / FRET / MOA assay, KRAS Q61H; type: biochemical; settings: Ras-Raf disruption/FRET/MOA assay; class symbols; read-out: KRAS Q61H FRET data IC50
In short: as §1

NRAS Q61R = NRAS Q61R (Homo sapiens (Human), UniProt P01111+P62937, Q61R); experiment: Ras-Raf (BRAF RBD) disruption / FRET / MOA assay, NRAS Q61R; type: biochemical; settings: NRAS Q61R; Ras-Raf disruption/FRET/MOA assay; read-out: IC50* NRAS Q61R FRET data
In short: as §1

KRAS WT = KRAS WT (Homo sapiens (Human), UniProt P01116+P62937); experiment: Ras-Raf (BRAF RBD) disruption / FRET / MOA assay, KRAS WT; type: biochemical; settings: read-out: IC50* KRAS WT FRET data
In short: (§2)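 TR-FRET read-out: a drop in ratio relative to DMSO wells marks disruption of the Ras:RAF complex, reported as IC50. Compounds (3-fold series, 10 points, top 30 μM final) incubated 3 h at 25° C before Eu-anti-His 10 nM and APC-anti-GST 50 nM, 1.5 h more.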

KRAS G12D = KRAS G12D (Homo sapiens (Human), UniProt P01116+P62937, G12D); experiment: Ras-Raf (BRAF RBD) disruption / FRET / MOA assay, KRAS G12D; type: biochemical; settings: Ras-Raf disruption/FRET/MOA assay; class symbols; read-out: KRAS G12D FRET data IC50
In short: as §2

K-Ras G13C = K-Ras G13C (Homo sapiens (Human), UniProt P01116+P62937, G13C); experiment: Ras-Raf (BRAF RBD) disruption / FRET / MOA assay, KRAS G13C; type: biochemical; settings: KRAS G13C; Ras-Raf disruption/FRET/MOA assay; read-out: IC50* KRAS G13C FRET data
In short: as §2

NCI-H358 (K-Ras G12C) = experiment: CellTiter-Glo cell viability assay, NCI-H358; type: cell-based, human; settings: Homo sapiens, NCI-H358, 120 h, NCI-H358, 5-day treatment; class symbols; read-out: Additional H358 Cell Viability assay data (K-Ras G12C, IC50)
In short: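 Compounds dispensed directly onto seeded K-Ras mutant cells; plates read on day 5 after ~30 min equilibration to room temperature, by CellTiter-Glo luminescence. Signal normalized as (sample/mean DMSO)×100, then fitted to a four-parameter logistic curve.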

K-Ras G12C = K-Ras G12C (Homo sapiens (Human), UniProt P01116+P62937, G12C); experiment: Ras-Raf (BRAF RBD) disruption / FRET / MOA assay, KRAS G12C; type: biochemical; settings: KRAS G12C; Ras-Raf disruption/FRET/MOA assay; read-out: IC50* KRAS G12C FRET data
In short: as §2

NRAS G12C = NRAS G12C (Homo sapiens (Human), UniProt P01111+P62937, G12C); experiment: Ras-Raf (BRAF RBD) disruption / FRET / MOA assay, NRAS G12C; type: biochemical; settings: read-out: IC50* NRAS G12C FRET data
In short: as §2

KRAS G12V = KRAS G12V (Homo sapiens (Human), UniProt P01116+P62937, G12V); experiment: Ras-Raf (BRAF RBD) disruption / FRET / MOA assay, KRAS G12V; type: biochemical; settings: read-out: IC50* KRAS G12V FRET data
In short: as §2

KRAS G12S = KRAS G12S (Homo sapiens (Human), UniProt P01116+P62937, G12S); experiment: Ras-Raf (BRAF RBD) disruption / FRET / MOA assay, KRAS G12S; type: biochemical; settings: Ras-Raf disruption/FRET/MOA assay; class symbols; read-out: KRAS G12S FRET data IC50
In short: as §2

KRAS G12S, sequence (P01116-2 other isoform, or with tags, fused parts or gaps G12S): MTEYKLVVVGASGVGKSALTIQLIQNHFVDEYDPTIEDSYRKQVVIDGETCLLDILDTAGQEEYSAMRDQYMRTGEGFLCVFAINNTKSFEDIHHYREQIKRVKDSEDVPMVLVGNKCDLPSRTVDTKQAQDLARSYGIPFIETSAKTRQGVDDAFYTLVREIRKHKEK
KRAS G12S, sequence (P62937 whole entry): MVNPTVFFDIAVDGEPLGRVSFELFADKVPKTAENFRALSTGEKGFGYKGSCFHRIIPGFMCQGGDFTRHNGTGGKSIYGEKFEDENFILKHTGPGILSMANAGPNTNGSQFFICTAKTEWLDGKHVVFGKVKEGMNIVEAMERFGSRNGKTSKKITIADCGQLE
NRAS G12C, sequence (P01111 whole entry G12C): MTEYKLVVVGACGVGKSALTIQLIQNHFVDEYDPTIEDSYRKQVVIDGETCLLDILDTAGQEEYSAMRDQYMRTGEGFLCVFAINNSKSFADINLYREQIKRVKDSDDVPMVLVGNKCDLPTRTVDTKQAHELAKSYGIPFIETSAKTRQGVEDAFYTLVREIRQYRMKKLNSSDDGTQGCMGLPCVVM
NRAS G12C, sequence (P62937 whole entry): as the sequence (P62937 whole entry) above
KRAS Q61H, sequence (P01116-2 other isoform, or with tags, fused parts or gaps Q61H): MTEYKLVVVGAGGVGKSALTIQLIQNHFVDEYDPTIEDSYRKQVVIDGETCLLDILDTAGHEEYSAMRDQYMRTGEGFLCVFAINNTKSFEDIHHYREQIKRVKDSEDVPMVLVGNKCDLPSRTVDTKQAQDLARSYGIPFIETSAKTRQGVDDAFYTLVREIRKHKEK
KRAS Q61H, sequence (P62937 whole entry): as the sequence (P62937 whole entry) above
NRAS WT, sequence (P01111 whole entry): as the sequence (P01111 whole entry G12C) above, with C12G counted along it
NRAS WT, sequence (P62937 whole entry): as the sequence (P62937 whole entry) above
NRAS Q61R, sequence (P01111 whole entry Q61R): as the sequence (P01111 whole entry G12C) above, with C12G, Q61R counted along it
NRAS Q61R, sequence (P62937 whole entry): as the sequence (P62937 whole entry) above
KRAS G12D, sequence (P01116-2 other isoform, or with tags, fused parts or gaps G12D): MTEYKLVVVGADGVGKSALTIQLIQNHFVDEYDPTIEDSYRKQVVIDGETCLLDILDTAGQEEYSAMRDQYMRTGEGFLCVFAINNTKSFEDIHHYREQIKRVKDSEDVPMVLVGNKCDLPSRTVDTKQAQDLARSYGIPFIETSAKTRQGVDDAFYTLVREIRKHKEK
KRAS G12D, sequence (P62937 whole entry): as the sequence (P62937 whole entry) above
KRAS WT, sequence (P01116-2 other isoform, or with tags, fused parts or gaps): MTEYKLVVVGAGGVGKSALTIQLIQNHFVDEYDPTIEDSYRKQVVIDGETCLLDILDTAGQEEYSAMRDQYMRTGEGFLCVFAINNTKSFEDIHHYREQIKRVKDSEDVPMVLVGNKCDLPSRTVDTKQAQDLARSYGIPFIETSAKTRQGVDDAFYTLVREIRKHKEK
KRAS WT, sequence (P62937 whole entry): as the sequence (P62937 whole entry) above
KRAS G12V, sequence (P01116-2 other isoform, or with tags, fused parts or gaps G12V): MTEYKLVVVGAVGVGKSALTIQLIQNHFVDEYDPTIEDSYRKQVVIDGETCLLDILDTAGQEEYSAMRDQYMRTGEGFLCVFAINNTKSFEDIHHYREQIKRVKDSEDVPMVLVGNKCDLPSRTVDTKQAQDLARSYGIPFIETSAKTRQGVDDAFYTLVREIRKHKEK
KRAS G12V, sequence (P62937 whole entry): as the sequence (P62937 whole entry) above
K-Ras G12C, sequence (P01116-2 other isoform, or with tags, fused parts or gaps G12C): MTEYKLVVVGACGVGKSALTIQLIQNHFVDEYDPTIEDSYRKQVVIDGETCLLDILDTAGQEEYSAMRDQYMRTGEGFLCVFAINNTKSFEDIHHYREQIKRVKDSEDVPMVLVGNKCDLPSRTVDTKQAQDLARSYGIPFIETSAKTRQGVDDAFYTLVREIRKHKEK
K-Ras G12C, sequence (P62937 whole entry): as the sequence (P62937 whole entry) above
K-Ras G13C, sequence (P01116-2 other isoform, or with tags, fused parts or gaps G13C): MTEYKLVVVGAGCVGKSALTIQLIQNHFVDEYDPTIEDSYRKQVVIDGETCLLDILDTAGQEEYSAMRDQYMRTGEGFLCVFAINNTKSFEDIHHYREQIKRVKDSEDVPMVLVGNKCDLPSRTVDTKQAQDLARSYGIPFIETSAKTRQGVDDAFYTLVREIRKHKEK
K-Ras G13C, sequence (P62937 whole entry): as the sequence (P62937 whole entry) above
NRAS Q61K, sequence (P01111 whole entry Q61K): as the sequence (P01111 whole entry G12C) above, with C12G, Q61K counted along it
NRAS Q61K, sequence (P62937 whole entry): as the sequence (P62937 whole entry) above

CCn1c(-c2cccnc2[C@H](C)OC)c2c3cc(ccc31)N1CCC[C@@H](C[C@H](NC(=O)[C@H](C(C)C)N(C)C(=O)C3(F)CCN(C(=O)C#CC(C)(C)N(C)C)CC3)C(=O)N3CCC[C@H](N3)C(=O)OCC(C)(C)C2)C1 (atropisomer, axis not shown) [Example A615]
pIC50 (NRAS WT): < 5.00
pIC50 (NRAS Q61K): < 5.00
pIC50 (KRAS Q61H): < 5.00
pIC50 (NRAS Q61R): < 5.00
pIC50 (KRAS WT): < 5.00
pIC50 (KRAS G12D): < 5.00
pIC50 (K-Ras G13C): < 5.00
pIC50 (NCI-H358 (K-Ras G12C)): > 8.00
pIC50 (K-Ras G12C): 7.00 to 8.00
pIC50 (NRAS G12C): 7.00 to 8.00
pIC50 (KRAS G12V): < 5.00
pIC50 (KRAS G12S): < 5.00

C=CC(=O)N(C)CCC1CCN(C(=O)N(C)[C@H](C(=O)N[C@H]2Cc3nc(cs3)-c3ccc4c(c3)c(c(-c3cccnc3[C@H](C)OC)n4CC)CC(C)(C)COC(=O)[C@@H]3CCCN(N3)C2=O)C(C)C)CC1 (atropisomer, axis not shown) [Example A621]
pIC50 (NRAS WT): 7.00 to 8.00
pIC50 (NRAS Q61K): 7.00 to 8.00
pIC50 (KRAS Q61H): > 8.00
pIC50 (NRAS Q61R): 7.00 to 8.00
pIC50 (KRAS WT): 7.00 to 8.00
pIC50 (KRAS G12D): 6.00 to 7.00
pIC50 (K-Ras G13C): 7.00 to 8.00
pIC50 (NCI-H358 (K-Ras G12C)): > 8.00
pIC50 (K-Ras G12C): 7.00 to 8.00
pIC50 (NRAS G12C): 7.00 to 8.00
pIC50 (KRAS G12V): 7.00 to 8.00
pIC50 (KRAS G12S): 7.00 to 8.00

CCn1c(-c2cccnc2[C@H](C)OC)c2c3cc(ccc31)-c1csc(n1)C[C@H](NC(=O)[C@H](C(C)C)N(C)C(=O)N1C[C@H]3CN(C(=O)C#CC(C)(C)N(C)C)CC[C@H]31)C(=O)N1CCC[C@H](N1)C(=O)OCC(C)(C)C2 (atropisomer, axis not shown) [Example A624]
pIC50 (NRAS WT): 6.00 to 7.00
pIC50 (NRAS Q61K): 6.00 to 7.00
pIC50 (KRAS Q61H): 6.00 to 7.00
pIC50 (NRAS Q61R): 6.00 to 7.00
pIC50 (KRAS WT): 6.00 to 7.00
pIC50 (KRAS G12D): 5.00 to 6.00
pIC50 (K-Ras G13C): 6.00 to 7.00
pIC50 (NCI-H358 (K-Ras G12C)): > 8.00
pIC50 (K-Ras G12C): 7.00 to 8.00
pIC50 (NRAS G12C): 7.00 to 8.00
pIC50 (KRAS G12V): 6.00 to 7.00
pIC50 (KRAS G12S): 6.00 to 7.00

CCn1c(-c2cccnc2[C@H](C)OC)c2c3cc(ccc31)-c1csc(n1)C[C@H](NC(=O)[C@H](F)COC1CN(C(=O)C#CC(C)(C)N(C)C)C1)C(=O)N1CCC[C@H](N1)C(=O)OCC(C)(C)C2 (atropisomer, axis not shown) [Example A627]
pIC50 (NRAS WT): < 5.00
pIC50 (NRAS Q61K): < 5.00
pIC50 (KRAS Q61H): 5.00 to 6.00
pIC50 (NRAS Q61R): < 5.00
pIC50 (KRAS WT): < 5.00
pIC50 (KRAS G12D): < 5.00
pIC50 (K-Ras G13C): < 5.00
pIC50 (NCI-H358 (K-Ras G12C)): > 8.00
pIC50 (K-Ras G12C): > 8.00
pIC50 (NRAS G12C): > 8.00
pIC50 (KRAS G12V): < 5.00
pIC50 (KRAS G12S): < 5.00

C=C(C)C(=O)N1CC2(CCN(C(=O)N(C)[C@H](C(=O)N[C@H]3Cc4nc(cs4)-c4ccc5c(c4)c(c(-c4cccnc4[C@H](C)OC)n5CC)CC(C)(C)COC(=O)[C@@H]4CCCN(N4)C3=O)C(C)C)CC2)C1 (atropisomer, axis not shown) [Example A651]
pIC50 (NRAS WT): 6.00 to 7.00
pIC50 (NRAS Q61K): 7.00 to 8.00
pIC50 (KRAS Q61H): 7.00 to 8.00
pIC50 (NRAS Q61R): 6.00 to 7.00
pIC50 (KRAS WT): 6.00 to 7.00
pIC50 (KRAS G12D): 6.00 to 7.00
pIC50 (K-Ras G13C): 6.00 to 7.00
pIC50 (NCI-H358 (K-Ras G12C)): 7.00 to 8.00
pIC50 (K-Ras G12C): 7.00 to 8.00
pIC50 (NRAS G12C): 7.00 to 8.00
pIC50 (KRAS G12V): 6.00 to 7.00
pIC50 (KRAS G12S): 6.00 to 7.00

C=CC(=O)N(C)C[C@H]1CCN(C(=O)N(C)[C@H](C(=O)N[C@H]2Cc3nc(cs3)-c3ccc4c(c3)c(c(-c3cccnc3[C@H](C)OC)n4CC)CC(C)(C)COC(=O)[C@@H]3CCCN(N3)C2=O)C(C)C)C1 (atropisomer, axis not shown) [Example A653]
pIC50 (NRAS WT): 6.00 to 7.00
pIC50 (NRAS Q61K): 7.00 to 8.00
pIC50 (KRAS Q61H): 7.00 to 8.00
pIC50 (NRAS Q61R): 6.00 to 7.00
pIC50 (KRAS WT): 6.00 to 7.00
pIC50 (KRAS G12D): 6.00 to 7.00
pIC50 (K-Ras G13C): 6.00 to 7.00
pIC50 (NCI-H358 (K-Ras G12C)): 7.00 to 8.00
pIC50 (K-Ras G12C): 7.00 to 8.00
pIC50 (NRAS G12C): 7.00 to 8.00
pIC50 (KRAS G12V): 6.00 to 7.00
pIC50 (KRAS G12S): 6.00 to 7.00
